For one compound, remaining binding results are on record in article PMC10174618, “Monoterpenoid aryl hydrocarbon receptor allosteric antagonists protect against ultraviolet skin damage in female mice” (Nature Communications, 2023).

Holding throughout (assay): biochemical
Common to all, as to set-up: KINOMEscan scanMAX active site-directed competition binding assay, percent of control, 468 kinases
Holding throughout (conditions): competition binding, percent of control

The target in one test is MARK2 (Homo sapiens, UniProt Q7KZI7). The method in brief:
(§1)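 KINOMEscan active site-directed competition binding assay against 468 human kinases with 100 μM S-carvone. Binding expressed as % of control, with 35% of control as the inhibition threshold.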

The next test addresses TAOK3 (Homo sapiens, UniProt Q9H2K8). An outline of the steps: as §1
The target in the next test is LRRK2(G2019S) (Homo sapiens, UniProt Q5S007, G2019S). The method in brief:
as §1

Another test has as its target PIK3CA(E542K) (Homo sapiens, UniProt P42336, E542K). An outline of the steps:
as §1

Another test concerns the target ACVR2B (Homo sapiens, UniProt Q13705). The method in brief:
as §1

For another test, the target named is PIK3CA(E545K) (Homo sapiens, UniProt P42336, E545K). The method in brief: as §1
A further test has as its target T1, PRP4 (Homo sapiens, UniProt Q13523).
T1 construct: gene PRPF4B
An outline of the steps:
as §1

Another test has as its target SRPK2 (Homo sapiens, UniProt P78362). An outline of the steps:
as §1

The target of a further test is FRK (Homo sapiens, UniProt P42685). The method in brief: as §1
In a further test the target is T2, DRAK2 (Homo sapiens, UniProt O94768).
T2 construct: gene STK17B
T2 sequence (O94768 whole entry): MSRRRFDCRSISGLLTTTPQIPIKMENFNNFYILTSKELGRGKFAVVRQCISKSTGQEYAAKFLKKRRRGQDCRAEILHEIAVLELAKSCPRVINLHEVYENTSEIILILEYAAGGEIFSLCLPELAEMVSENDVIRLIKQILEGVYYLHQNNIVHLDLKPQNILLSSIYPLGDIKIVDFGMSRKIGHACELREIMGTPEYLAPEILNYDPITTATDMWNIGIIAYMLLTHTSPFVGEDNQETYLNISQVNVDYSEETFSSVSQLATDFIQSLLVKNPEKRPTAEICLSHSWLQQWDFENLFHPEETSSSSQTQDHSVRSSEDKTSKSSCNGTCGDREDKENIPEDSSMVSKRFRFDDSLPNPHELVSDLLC
The method in brief:
as §1

In a further test the target is PRKD1 (Homo sapiens, UniProt Q15139). The method in brief:
as §1

For another test, the target named is TLK1 (Homo sapiens, UniProt Q9UKI8). The method in brief: as §1
For a further test, the target named is GRK3 (Homo sapiens, UniProt P35626). The method in brief:
as §1

Test [1] concerns the target T3, RSK2(Kin.Dom.1-N-terminal) (Homo sapiens, UniProt P51812).
T3 construct: gene RPS6KA3; Kin.Dom.1-N-terminal
The method in brief:
as §1

For the next test, the target named is T4, CDC2L5 (Homo sapiens, UniProt Q14004).
T4 construct: gene CDK13
An outline of the steps: as §1

A further test has as its target CSNK1A1 (Homo sapiens, UniProt P48729). An outline of the steps: as §1
The next test addresses T5, BIKE (Homo sapiens, UniProt Q9NSY1).
T5 construct: gene BMP2K
An outline of the steps: as §1

Another test addresses T6, S6K1 (Homo sapiens, UniProt P23443).
T6 construct: gene RPS6KB1
The method in brief: as §1

The target of a further test is NLK (Homo sapiens, UniProt Q9UBE8). The method in brief:
as §1

Another test addresses T7, YANK1 (Homo sapiens, UniProt Q8WU08).
T7 construct: gene STK32A
An outline of the steps: as §1

The target in the next test is T8, CTK (Homo sapiens, UniProt P42679).
T8 construct: gene MATK
T8 sequence (P42679 whole entry): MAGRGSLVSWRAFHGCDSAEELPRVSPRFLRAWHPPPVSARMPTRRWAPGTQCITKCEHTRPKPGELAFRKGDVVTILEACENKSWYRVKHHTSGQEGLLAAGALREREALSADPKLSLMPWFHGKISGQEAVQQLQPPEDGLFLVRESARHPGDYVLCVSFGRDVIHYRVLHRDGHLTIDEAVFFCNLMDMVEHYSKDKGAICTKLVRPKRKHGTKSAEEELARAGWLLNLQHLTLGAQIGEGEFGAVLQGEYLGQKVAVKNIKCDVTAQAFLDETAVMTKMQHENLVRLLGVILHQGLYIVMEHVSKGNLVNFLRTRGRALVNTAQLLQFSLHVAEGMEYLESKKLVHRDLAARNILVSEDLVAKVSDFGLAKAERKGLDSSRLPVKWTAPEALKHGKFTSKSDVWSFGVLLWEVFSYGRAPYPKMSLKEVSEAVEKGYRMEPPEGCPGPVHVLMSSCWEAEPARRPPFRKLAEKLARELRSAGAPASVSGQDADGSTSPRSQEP
An outline of the steps: as §1

T1 sequence (Q13523 whole entry): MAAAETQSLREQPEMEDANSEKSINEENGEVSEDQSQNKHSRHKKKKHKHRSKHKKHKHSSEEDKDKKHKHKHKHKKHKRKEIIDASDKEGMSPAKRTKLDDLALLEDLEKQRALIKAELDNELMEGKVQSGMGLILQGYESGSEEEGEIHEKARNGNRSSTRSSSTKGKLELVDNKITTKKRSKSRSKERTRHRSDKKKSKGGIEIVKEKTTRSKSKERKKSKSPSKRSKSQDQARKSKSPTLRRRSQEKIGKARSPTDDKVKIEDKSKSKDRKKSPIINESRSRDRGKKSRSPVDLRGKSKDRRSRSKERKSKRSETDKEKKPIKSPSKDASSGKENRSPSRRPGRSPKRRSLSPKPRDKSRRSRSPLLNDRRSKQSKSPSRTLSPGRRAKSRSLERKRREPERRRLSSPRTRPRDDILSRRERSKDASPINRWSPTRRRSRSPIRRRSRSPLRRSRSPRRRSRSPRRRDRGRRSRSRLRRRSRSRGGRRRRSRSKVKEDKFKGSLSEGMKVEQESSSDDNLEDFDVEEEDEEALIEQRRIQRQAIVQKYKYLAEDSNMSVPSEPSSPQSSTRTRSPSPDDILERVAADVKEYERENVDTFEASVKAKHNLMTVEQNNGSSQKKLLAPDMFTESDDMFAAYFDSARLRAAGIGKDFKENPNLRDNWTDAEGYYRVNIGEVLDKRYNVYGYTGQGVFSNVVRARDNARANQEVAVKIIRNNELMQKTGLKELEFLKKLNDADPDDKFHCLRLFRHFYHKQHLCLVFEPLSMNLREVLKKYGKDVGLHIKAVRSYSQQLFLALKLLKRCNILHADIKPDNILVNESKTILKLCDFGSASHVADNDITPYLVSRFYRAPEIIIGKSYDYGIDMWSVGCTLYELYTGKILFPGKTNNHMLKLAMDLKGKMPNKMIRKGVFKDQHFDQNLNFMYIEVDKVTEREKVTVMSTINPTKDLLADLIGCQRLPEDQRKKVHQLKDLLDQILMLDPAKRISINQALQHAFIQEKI
Chain of ACVR2B (Q13705 whole entry): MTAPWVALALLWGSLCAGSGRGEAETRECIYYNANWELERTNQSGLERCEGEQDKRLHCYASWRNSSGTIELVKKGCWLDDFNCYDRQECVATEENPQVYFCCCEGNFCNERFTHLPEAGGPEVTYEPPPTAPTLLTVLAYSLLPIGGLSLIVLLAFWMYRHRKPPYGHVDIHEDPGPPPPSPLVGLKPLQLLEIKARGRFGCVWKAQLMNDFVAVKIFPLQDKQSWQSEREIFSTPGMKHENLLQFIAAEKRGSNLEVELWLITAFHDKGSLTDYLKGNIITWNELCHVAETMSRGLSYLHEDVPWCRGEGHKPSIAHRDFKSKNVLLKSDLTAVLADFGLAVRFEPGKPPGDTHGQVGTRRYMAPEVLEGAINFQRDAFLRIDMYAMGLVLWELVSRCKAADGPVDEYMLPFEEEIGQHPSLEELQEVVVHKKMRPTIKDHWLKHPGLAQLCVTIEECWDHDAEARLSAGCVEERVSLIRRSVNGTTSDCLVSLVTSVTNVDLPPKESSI
Chain of NLK (Q9UBE8 whole entry): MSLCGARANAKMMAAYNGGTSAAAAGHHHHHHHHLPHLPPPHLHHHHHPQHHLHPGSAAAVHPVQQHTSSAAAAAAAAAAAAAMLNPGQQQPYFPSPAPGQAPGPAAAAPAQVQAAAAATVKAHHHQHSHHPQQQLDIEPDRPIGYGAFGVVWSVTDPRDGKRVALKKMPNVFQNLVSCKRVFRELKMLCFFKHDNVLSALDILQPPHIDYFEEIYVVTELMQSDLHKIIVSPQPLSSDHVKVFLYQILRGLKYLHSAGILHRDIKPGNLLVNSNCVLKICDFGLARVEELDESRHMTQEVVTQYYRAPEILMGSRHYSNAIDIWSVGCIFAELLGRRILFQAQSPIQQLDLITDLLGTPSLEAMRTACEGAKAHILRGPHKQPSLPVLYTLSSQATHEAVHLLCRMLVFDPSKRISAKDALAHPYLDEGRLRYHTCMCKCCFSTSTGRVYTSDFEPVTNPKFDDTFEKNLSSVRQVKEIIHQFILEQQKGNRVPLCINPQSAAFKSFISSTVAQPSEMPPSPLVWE
Chain of PRKD1 (Q15139 whole entry): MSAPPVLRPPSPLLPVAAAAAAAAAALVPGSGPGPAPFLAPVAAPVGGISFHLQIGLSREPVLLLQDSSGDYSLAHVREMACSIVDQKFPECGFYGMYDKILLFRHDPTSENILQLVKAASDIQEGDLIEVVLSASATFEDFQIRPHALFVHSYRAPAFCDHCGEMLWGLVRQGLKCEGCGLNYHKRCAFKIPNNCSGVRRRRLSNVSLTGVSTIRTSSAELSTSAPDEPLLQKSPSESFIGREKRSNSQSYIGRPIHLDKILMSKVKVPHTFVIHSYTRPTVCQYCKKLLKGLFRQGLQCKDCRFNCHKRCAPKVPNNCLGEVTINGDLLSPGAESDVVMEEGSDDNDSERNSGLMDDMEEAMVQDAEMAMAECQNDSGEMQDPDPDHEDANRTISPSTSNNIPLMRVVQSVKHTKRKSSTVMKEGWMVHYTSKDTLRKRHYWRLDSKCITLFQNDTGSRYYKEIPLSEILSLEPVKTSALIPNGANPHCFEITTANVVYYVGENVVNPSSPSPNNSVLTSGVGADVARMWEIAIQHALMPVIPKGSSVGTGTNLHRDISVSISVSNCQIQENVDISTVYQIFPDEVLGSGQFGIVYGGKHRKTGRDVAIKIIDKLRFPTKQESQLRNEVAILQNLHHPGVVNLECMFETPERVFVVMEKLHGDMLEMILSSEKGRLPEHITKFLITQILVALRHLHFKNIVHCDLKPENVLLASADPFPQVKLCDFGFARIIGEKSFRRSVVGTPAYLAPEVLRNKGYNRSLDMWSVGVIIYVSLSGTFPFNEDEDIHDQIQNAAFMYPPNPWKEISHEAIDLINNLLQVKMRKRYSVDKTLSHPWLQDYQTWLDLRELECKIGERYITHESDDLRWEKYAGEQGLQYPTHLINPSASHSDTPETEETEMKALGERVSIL
Chain of CSNK1A1 (P48729 whole entry): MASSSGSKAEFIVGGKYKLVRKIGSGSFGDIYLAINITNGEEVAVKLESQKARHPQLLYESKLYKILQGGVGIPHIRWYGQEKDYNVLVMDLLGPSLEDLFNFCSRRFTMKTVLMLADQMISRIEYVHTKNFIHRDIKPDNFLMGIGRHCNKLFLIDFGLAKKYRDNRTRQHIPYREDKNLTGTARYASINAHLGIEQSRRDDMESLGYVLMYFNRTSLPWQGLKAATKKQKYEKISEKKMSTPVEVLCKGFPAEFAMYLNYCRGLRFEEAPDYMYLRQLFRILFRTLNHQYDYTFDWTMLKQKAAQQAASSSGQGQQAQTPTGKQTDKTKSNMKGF
T6 sequence (P23443 whole entry): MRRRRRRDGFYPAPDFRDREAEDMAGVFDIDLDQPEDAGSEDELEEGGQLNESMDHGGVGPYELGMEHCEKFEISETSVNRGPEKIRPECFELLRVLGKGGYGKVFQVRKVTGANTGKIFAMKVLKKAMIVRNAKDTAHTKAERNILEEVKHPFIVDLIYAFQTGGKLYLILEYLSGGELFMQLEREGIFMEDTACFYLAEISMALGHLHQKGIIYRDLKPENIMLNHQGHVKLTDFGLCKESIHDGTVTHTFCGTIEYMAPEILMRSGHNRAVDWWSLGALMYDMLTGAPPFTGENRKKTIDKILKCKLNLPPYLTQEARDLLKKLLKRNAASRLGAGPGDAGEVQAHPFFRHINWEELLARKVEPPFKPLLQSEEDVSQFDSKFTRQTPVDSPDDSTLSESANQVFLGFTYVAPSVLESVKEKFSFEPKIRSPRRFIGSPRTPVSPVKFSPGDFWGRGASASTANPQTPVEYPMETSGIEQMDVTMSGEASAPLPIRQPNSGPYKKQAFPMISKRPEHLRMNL

For `C=C(C)[C@H]1CC=C(C)C(=O)C1` [S-carvone], the remaining binding at 100 µM at MARK2 stood at 100%; at TAOK3, 73%; on LRRK2(G2019S), 81%; at PIK3CA(E542K) it was 70%; on ACVR2B, 75%; on PIK3CA(E545K), 63%. Besides, the remaining binding at 100 µM on PRP4 was found to be 62%; at SRPK2 it was 99%; on FRK, 83%; on DRAK2, 98%; at PRKD1, 61%; at TLK1, 59%. Also, the remaining binding at 100 µM was determined as 58% at GRK3; 89% in test [1]; 74% at CDC2L5; 68% on CSNK1A1; 100% on BIKE; 93% on S6K1. Further, the remaining binding at 100 µM on NLK stood at 81%; on YANK1, 78%; on CTK it was 75%.
